Assays:
[1] = Inhibition of Plasmodium falciparum DHFR N51I/C59R/S108N mutant expressed in Escherichia coli BL21 using DHF as substrate by spectrophotometric analysis
[2] = Inhibition of Plasmodium falciparum DHFR […] mutant expressed in Escherichia coli BL21 using DHF as substrate by spectrophotometric analysis
[3] = test system: Plasmodium falciparum; test: Antimalarial activity against Plasmodium falciparum K1CB1 harboring DHFR […] mutant infected in human erythrocytes assessed as reduction in [3H]-hypoxanthine incorporation pretreated for 20 hrs followed by [3H]-hypoxanthine addition measured after 20 hrs by radioactivity method; assay type: functional, organism-based; conditions: K1CB1, Erythrocyte
[4] = test system: Plasmodium falciparum; test: Antimalarial activity against Plasmodium falciparum TM4/8.2 infected in human erythrocytes assessed as reduction in [3H]-hypoxanthine incorporation pretreated for 20 hrs followed by [3H]-hypoxanthine addition measured after 20 hrs by radioactivity method; assay type: functional, organism-based
[5] = Inhibition of Plasmodium falciparum DHFR expressed in Escherichia coli BL21 using DHF as substrate by spectrophotometric analysis
[6] = Inhibition of Plasmodium falciparum DHFR A16V/S108T mutant expressed in Escherichia coli BL21 using DHF as substrate by spectrophotometric analysis
[7] = Inhibition of Plasmodium falciparum DHFR N51I/C59R/S108N/I164L mutant expressed in Escherichia coli BL21 using DHF as substrate by spectrophotometric analysis
[8] = test system: Plasmodium falciparum; test: Antimalarial activity against Plasmodium falciparum CsI-2 harboring DHFR C59R/S108N/I164L mutant infected in human erythrocytes assessed as reduction in [3H]-hypoxanthine incorporation pretreated for 20 hrs followed by [3H]-hypoxanthine addition measured after 20 hrs by radioactivity method; assay type: functional, organism-based; conditions: CsI-2, Erythrocyte
[9] = test system: Plasmodium falciparum; test: Antimalarial activity against Plasmodium falciparum V1/S harboring DHFR N51I/C59R/S108N/I164L mutant infected in human erythrocytes assessed as reduction in [3H]-hypoxanthine incorporation pretreated for 20 hrs followed by [3H]-hypoxanthine addition measured after 20 hrs by radioactivity method; assay type: functional, organism-based; conditions: Erythrocyte
[10] = Inhibition of Plasmodium falciparum DHFR C59R/S108N/I164L mutant expressed in Escherichia coli BL21 using DHF as substrate by spectrophotometric analysis
[11] = test system: Plasmodium falciparum; test: Antimalarial activity against Plasmodium falciparum W2 harboring DHFR N51I/C59R/S108N mutant infected in human erythrocytes assessed as reduction in [3H]-hypoxanthine incorporation pretreated for 20 hrs followed by [3H]-hypoxanthine addition measured after 20 hrs by radioactivity method; assay type: functional, organism-based; conditions: W2, Erythrocyte
[12] = test system: Plasmodium falciparum; test: Antimalarial activity against Plasmodium falciparum T9/94 RC17 harboring DHFR A16V/S108T mutant infected in human erythrocytes assessed as reduction in [3H]-hypoxanthine incorporation pretreated for 20 hrs followed by [3H]-hypoxanthine addition measured after 20 hrs by radioactivity method; assay type: functional, organism-based; conditions: T9/94 RC17, Erythrocyte

| Compound | Ki [1] | Ki [2] | IC50 [3] | IC50 [4] | Ki [5] | Ki [6] | Ki [7] | IC50 [8] | IC50 [9] | Ki [10] | IC50 [11] | IC50 [12] |
| --- | --- | --- | --- | --- | --- | --- | --- | --- | --- | --- | --- | --- |
| CC1(C)N=C(N)N=C(N)N1OCCCCOCc1ccccc1 | 0.0029 µM | 0.0025 µM | 2.4 µM | 0.4 µM | 0.001 µM | 0.0105 µM | 0.0182 µM | 4.8 µM | 20.8 µM | 0.0122 µM | 3.2 µM |  |
| CC1(C)N=C(N)N=C(N)N1OCCCSC1CCCCC1 | 0.0008 µM | 0.0011 µM | 0.26 µM | 0.0033 µM | 0.0006 µM | 0.003 µM | 0.0014 µM | 0.26 µM | 3.5 µM | 0.0015 µM | 0.19 µM | 0.0069 µM |
| CC1(C)N=C(N)N=C(N)N1OCCCOCc1ccccc1 | 0.0012 µM | 0.0013 µM | 0.048 µM | 0.014 µM | 0.0006 µM | 0.0053 µM | 0.0041 µM | 0.4 µM | 1.21 µM | 0.0042 µM | 0.051 µM |  |
| CC1(C)N=C(N)N=C(N)N1OCCCN(Cc1ccccc1)c1ccc(Cl)cc1 | 0.0011 µM | 0.0008 µM | 0.4 µM | 0.031 µM | 0.0006 µM | 0.0061 µM | 0.002 µM | 3.1 µM | 3.6 µM | 0.0023 µM | 0.51 µM | 0.049 µM |
| NC1=NC(c2ccccc2)N(OCCc2ccccc2)C(N)=N1 (stereo not drawn) | 0.0041 µM | 0.0033 µM | 16.2 µM | 0.08 µM | 0.0014 µM | 0.0083 µM | 0.014 µM | 20.5 µM | 24.7 µM | 0.013 µM | 16.8 µM | 0.0031 µM |
| CC1(C)N=C(N)N=C(N)N1OCCCNc1ccccc1 | 0.0011 µM | 0.0008 µM | 0.24 µM | 1.85 µM | 0.0006 µM | 0.0057 µM | 0.0048 µM | 3.2 µM | 2.3 µM | 0.0018 µM | 0.3 µM |  |
| CC1(C)N=C(N)N=C(N)N1OCCOc1cc(Cl)c(Cl)cc1Cl | 0.0022 µM | 0.0012 µM | 0.49 µM | 0.75 µM | 0.001 µM | 0.0061 µM | 0.016 µM | 3.3 µM | 11.5 µM | 0.011 µM | 3.01 µM |  |
| CC1(C)N=C(N)N=C(N)N1OCc1ccccc1 | 0.0059 µM | 0.0028 µM | 1.8 µM | 2.67 µM | 0.0004 µM | 0.046 µM | 0.045 µM | 47.6 µM | > 100 µM | 0.03 µM | 4.5 µM |  |
| NC1=NC(c2ccccc2)N(CCCOc2cc(Cl)c(Cl)cc2Cl)C(N)=N1 (stereo not drawn) | 0.0026 µM | 0.0021 µM | 2.9 µM | 0.75 µM | 0.0012 µM | 0.0073 µM | 0.0057 µM | 3.1 µM | 2.6 µM | 0.0056 µM | 2.3 µM | 0.018 µM |
| NC1=NC(c2ccccc2)N(OCCCc2ccccc2)C(N)=N1 (stereo not drawn) | 0.0006 µM | 0.0009 µM | 0.19 µM | 0.02 µM | 0.0022 µM | 0.007 µM | 0.0036 µM | 4.5 µM | 4.8 µM | 0.0032 µM | 0.13 µM | 0.00052 µM |
| NC1=NC(c2ccccc2)N(OCCCOc2ccc(Cl)cc2)C(N)=N1 (stereo not drawn) | 0.0008 µM | 0.0011 µM | 0.085 µM | 0.012 µM | 0.0004 µM | 0.0016 µM | 0.0005 µM | 0.72 µM | 2.3 µM | 0.0008 µM | 0.1 µM | 0.00058 µM |
| CCN(CCCON1C(N)=NC(N)=NC1(C)C)c1ccc(Cl)c(Cl)c1 | 0.002 µM | 0.0021 µM | 0.035 µM | 0.026 µM | 0.0014 µM | 0.0028 µM | 0.0039 µM | 0.046 µM | 2.9 µM | 0.0022 µM | 0.071 µM |  |

— ChEMBL document CHEMBL4765292, “Flexible diaminodihydrotriazine inhibitors of Plasmodium falciparum dihydrofolate reductase: Binding strengths, modes of binding and their antimalarial activities” (Eur J Med Chem, 2020)
